Laboratory results published in patent US20090137593A1, “4-AMINO-2,6-DIMETHYLPHENOL COMPOUND, PROCESS FOR ITS PREPARATION AND PHARMACEUTICAL COMPOSITION COMPRISING THE SAME” (AZIEN CHIM RIUNITE ANGEL FRANC A.C.R.A.F. S.P.A., priority 2006, published 2009).
pIC50: −log10 of the molar value. Where a name gives a salt, the structure may show the parent alone.

Legend:
[1] = tested on: 5-LO-mediated bronchoconstriction; conditions: Sakuma Y et al., Prostaglandins, 1991; cited from earlier work
PAN-induced nephrosis = experiment: Effects on PAN-induced nephrosis (proteinuria over 24 hours); type: in vivo, Male SD rats; conditions: Rattus norvegicus, SD rats, 100 mg/kg ip on seventh day, read-out: percentage of inhibition of the amount of protein excreted (PAN-induced nephrosis)
Method: This test allows the in vivo evaluation of the effects on renal damage induced by the inflammatory response following the administration of PAN (puromycin aminonucleoside). Male SD rats weighing 180-220 g were used. The nephrosis was induced by intravenous injection of PAN (100 mg/kg). On the sixth day of administration of PAN, the presence of nephrosis was determined by measuring the amount of protein excreted in the urine over 24 hours (basal proteinuria). On the seventh day, the rats were treated intraperitoneally with Compound 2 (100 mg/kg) and for the next 24 hours the urine was collected to measure the proteinuria. By following the same method, the control animals received, intraperitoneally, only the vehicle (methylcellulose) used to administer the tested compound. The effects on the PAN-induced nephrosis were evaluated by measuring the proteinuria over 24 hours and expressed as a percentage of inhibition of the amount of protein excreted.

[2] = tested on: nociceptive response induced by mechanical hyperalgesia; experiment: Anti-nociceptive activity (carrageenan-induced mechanical hyperalgesia, analgesimeter); type: in vivo, Male CD rats; conditions: Rattus norvegicus; CD rats, ip 2 hours after carrageenan, evaluated 1, 2 and 4 hours after treatment; read-out: ED50 (anti-nociceptive, mechanical pain threshold)
[3] = tested on: 5-LO-mediated bronchoconstriction; experiment: Effect on 5-LO-mediated bronchoconstriction in vivo (ovalbumin-sensitized guinea pigs, intratracheal pressure); conditions: Cavia porcellus, 100 mg/kg ip, 30 minutes before ovalbumin 15 μg/kg iv, read-out: percentage of inhibition of bronchoconstriction
Method: Guinea pigs weighing 250-400 g were used.
The animals were sensitized by administration on days 1 and 8 of ovalbumin (0.5 μg/animal, ip). Between days 19 and 23 after the sensitization, the capacity of ovalbumin (15 μg/kg, iv) to induce bronchoconstriction was tested by measuring the increase in intratracheal pressure.
On the day of the test, 30 minutes after administration of Compound 2 (100 mg/kg, ip), the animals were treated with mepiramine (2 mg/kg, iv), indomethacin (10 mg/kg, iv) and propranolol (0.1 mg/kg, iv), and then received ovalbumin (15 μg/kg, iv) to induce bronchoconstriction. The control animals received intraperitoneally only the vehicle used (methylcellulose) for the administration of the tested compound.
The effects on 5-LO-mediated bronchoconstriction in vivo were evaluated by measuring the intratracheal pressure, and are expressed as a percentage of inhibition of bronchoconstriction.

[4] = tested on: yeast-induced febrile response; experiment: Anti-pyretic activity (yeast-induced febrile response, rectal temperature); type: in vivo, Male CD rats; conditions: CD rats; for effect on the febrile response (rectal temperature): 30 mg/kg ip 18 hours after yeast, FIG. 1
Method: This test allows in vivo evaluation of the effects on the yeast-induced febrile response. Male CD rats weighing 101-125 g were used. Fevers were induced by subcutaneous injection of a 15% yeast suspension. 18 hours after the administration of yeast, a first group of animals was treated intraperitoneally (30 mg/kg) with Compound 2, while a second group of animals was treated with the Comparison Compound. A third group of control animals received intraperitoneally only the vehicle (methylcellulose) used to administer the tested compounds. For all the groups, the rectal temperature was measured 30 minutes and 1, 2 and 4 hours after the treatment.

enzyme 5-LO = molecular target: T1, enzyme 5-LO (Homo sapiens, UniProt P09917); experiment: Effect on the enzyme 5-LO in vitro (human PMNL cells, arachidonic acid substrate, leukotriene quantification); type: cell-based; conditions: arachidonic acid as substrate, leukotriene (LT4) quantified
T1 construct: Human PMNL cells (polymorphonuclear leukocytes) were used; endogenous in cells; host or cells: human polymorphonuclear leukocytes (PMNL)
T1 sequence (P09917 1-674): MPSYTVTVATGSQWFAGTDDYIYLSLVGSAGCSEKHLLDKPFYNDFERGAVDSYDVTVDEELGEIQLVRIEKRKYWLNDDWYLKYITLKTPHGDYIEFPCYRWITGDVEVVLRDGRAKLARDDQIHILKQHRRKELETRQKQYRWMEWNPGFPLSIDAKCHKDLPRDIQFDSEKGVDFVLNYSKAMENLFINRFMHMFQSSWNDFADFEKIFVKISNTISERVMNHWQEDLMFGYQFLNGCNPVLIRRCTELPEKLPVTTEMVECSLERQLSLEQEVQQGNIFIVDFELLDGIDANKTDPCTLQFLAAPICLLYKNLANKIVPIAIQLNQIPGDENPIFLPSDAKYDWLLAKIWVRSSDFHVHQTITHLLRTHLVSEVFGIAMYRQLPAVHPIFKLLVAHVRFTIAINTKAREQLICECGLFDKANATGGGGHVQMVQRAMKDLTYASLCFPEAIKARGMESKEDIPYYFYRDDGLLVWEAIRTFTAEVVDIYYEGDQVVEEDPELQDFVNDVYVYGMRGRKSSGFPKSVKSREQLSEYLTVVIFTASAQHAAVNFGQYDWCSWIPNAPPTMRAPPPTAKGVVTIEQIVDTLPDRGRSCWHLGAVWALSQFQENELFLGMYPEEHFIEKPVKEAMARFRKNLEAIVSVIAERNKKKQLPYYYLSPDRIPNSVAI
Method: Human PMNL cells (polymorphonuclear leukocytes) were used.
The cells were incubated in the presence of N-(4-hydroxy-3,5-di-methylphenyl)-2-morpholin-4-yl acetamide hydrochloride (Compound 2), using arachidonic acid as reaction substrate.
The activity of the enzyme 5-LO was evaluated by quantifying leukotriene […], which is the final product of the enzymatic reaction.

[5] = tested on: nephritis induced by anti-GBM antibodies; experiment: Effects on nephritis induced by anti-GBM antibodies (proteinuria over 24 hours); type: in vivo, Male WKY rats; conditions: Rattus norvegicus, WKY rats, 100 mg/kg ip, 2 administrations per day, tenth day, read-out: percentage of inhibition of the amount of protein excreted (anti-GBM nephritis)
Method: This test allows evaluation in vivo of the effects on renal damage induced by the inflammatory response following the administration of anti-GBM antibodies (anti-glomerular basal membrane antibodies). Male WKY rats weighing 180-220 g were used. The nephritis was induced by intravenous injection of anti-GBM antibodies. Immediately after administration of the antibody and 6 hours later, Compound 2 was administered intraperitoneally (100 mg/kg). The treatment was continued for the following 9 days, with 2 administrations per day of the tested product. By following the same methods, the control animals received only the vehicle (methylcellulose) used to administer the tested compound. On the tenth day from injection of the antibodies, the effects on nephritis were evaluated by measuring the proteinuria over 24 hours and expressed as a percentage of inhibition of the amount of protein excreted.

| SMILES | percentage of inhibition of bronchoconstriction (literature reference) [1] | inhibition at 100 mg/kg (PAN-induced nephrosis) | ED50 [2] | inhibition at 100 mg/kg [3] | duration of the anti-pyretic effects ([4]; 30 mg/kg ip) | time to significant reduction in the febrile response after treatment ([4]; 30 mg/kg ip) | effect on the febrile response (rectal temperature) [4] | pIC50 (enzyme 5-LO) | inhibition at 100 mg/kg [5] |
| --- | --- | --- | --- | --- | --- | --- | --- | --- | --- |
| O=C1CCN(c2ccccc2)N1 [phenidone] | 86% | – | – | – | – | – | – | – | – |
| Cc1cc(NC(=O)CN2CCOCC2)cc(C)c1O [Compound 2, N-(4-Hydroxy-3,5-dimethylphenyl)-2-morpholin-4-yl acetamide hydrochloride] | – | 2% | 3 mg/kg | 7% | about 4 hours | ≤ 1 h | significant reduction in the febrile response | 4.51 | 1% |
| Cc1cc(NC(=O)CCN2CCOCC2)cc(C)c1O [Comparison Compound, N-(4-Hydroxy-3,5-dimethylphenyl)-3-morpholin-4-yl propanamide hydrochloride, reference compound] | – | – | > 100 mg/kg | – | – | – | incapable of reducing the febrile response | – | – |
